Test results from ChEMBL document CHEMBL5625167, “In vitro bioevaluation and docking study of dihydrosphingosine and ethambutol analogues against sensitive and multi-drug resistant Mycobacterium tuberculosis” (Eur J Med Chem, 2023).
In brackets after ≈: the same amount, converted by molar mass. Activity calls are given as the source filed them. The rule behind the calls is not given here.

Key:
[1] = test system: Mycobacterium tuberculosis; experiment: Antimycobacterial activity against isoniazid, rifampicin, ethambutol and pyrazinamide sensitive Mycobacterium tuberculosis H37Rv ATCC 25618 assessed as inhibition of bacterial growth incubated for 7 days by resazurin dye based colorimetric method analysis; assay type: functional; details: H37Rv ATCC 25618, 168 h, time 7 day
[2] = test system: Mycobacterium tuberculosis; experiment: Potency index, ratio of ethambutol MIC to test compound MIC for antimycobacterial activity against isoniazid, rifampicin, ethambutol and pyrazinamide sensitive Mycobacterium tuberculosis H37Rv ATCC 25618 assessed as inhibition of bacterial growth incubated for 7 days by resazurin dye based colorimetric method analysis; assay type: functional; details: time 7 day
[3] = Cytotoxicity against African green monkey Vero cells assessed as reduction in cell population incubated for 48 hrs by MTT assay; assay type: toxicity, cell-based; details: chlorocebus sabaeus
[4] = Cytotoxicity against mouse J774.A1 cells assessed as reduction in cell population incubated for 48 hrs by MTT assay; assay type: toxicity, cell-based
[5] = Cytotoxicity against human HepG2 cells assessed as reduction in cell population incubated for 48 hrs by MTT assay; assay type: toxicity, cell-based
[6] = test system: Mycolicibacterium smegmatis; experiment: Antimycobacterial activity against Mycobacterium smegmatis ATCC607 incubated for 24 hrs by resazurin dye based broth microdilution method; assay type: functional
[7] = test system: Staphylococcus aureus; experiment: Antibacterial activity against Staphylococcus aureus ATCC 25923 incubated for 18 hrs by resazurin dye based broth microdilution method; assay type: functional
[8] = test system: Klebsiella pneumoniae; experiment: Antibacterial activity against Klebsiella pneumoniae ATCC 13883 incubated for 18 hrs by resazurin dye based broth microdilution method; assay type: functional
[9] = test system: Mycobacterium tuberculosis; experiment: Additive antimycobacterial activity against Mycobacterium tuberculosis H37Rv ATCC 25618 incubated for 7 days by resazurin dye based two-dimensional micro dilution checkerboard assay in presence of ethambutol; assay type: functional; details: time 7 day
[10] = test system: Mycobacterium tuberculosis; experiment: Additive antimycobacterial activity against Mycobacterium tuberculosis H37Rv ATCC 25618 incubated for 7 days by resazurin dye based two-dimensional micro dilution checkerboard assay in presence of isoniazid; assay type: functional; details: time 7 day
[11] = test system: Mycobacterium tuberculosis; experiment: Additive antimycobacterial activity against Mycobacterium tuberculosis H37Rv ATCC 25618 incubated for 7 days by resazurin dye based two-dimensional micro dilution checkerboard assay in presence of amikacin; assay type: functional; details: time 7 day
[12] = test system: Mycobacterium tuberculosis; experiment: Additive antimycobacterial activity against Mycobacterium tuberculosis H37Rv ATCC 25618 incubated for 7 days by resazurin dye based two-dimensional micro dilution checkerboard assay in presence of levofloxacin; assay type: functional; details: time 7 day
[13] = test system: Mycobacterium tuberculosis; experiment: Additive antimycobacterial activity against Mycobacterium tuberculosis H37Rv ATCC 25618 assessed as fractional inhibitory concentration index incubated for 7 days by resazurin dye based two-dimensional micro dilution checkerboard assay in presence of ethambutol; assay type: functional; details: time 7 day
[14] = test system: Mycobacterium tuberculosis; experiment: Additive antimycobacterial activity against Mycobacterium tuberculosis H37Rv ATCC 25618 assessed as fractional inhibitory concentration index incubated for 7 days by resazurin dye based two-dimensional micro dilution checkerboard assay in presence of isoniazid; assay type: functional; details: time 7 day
[15] = test system: Mycobacterium tuberculosis; experiment: Additive antimycobacterial activity against Mycobacterium tuberculosis H37Rv ATCC 25618 assessed as fractional inhibitory concentration index incubated for 7 days by resazurin dye based two-dimensional micro dilution checkerboard assay in presence of amikacin; assay type: functional; details: time 7 day
[16] = test system: Mycobacterium tuberculosis; experiment: Additive antimycobacterial activity against Mycobacterium tuberculosis H37Rv ATCC 25618 assessed as fractional inhibitory concentration index incubated for 7 days by resazurin dye based two-dimensional micro dilution checkerboard assay in presence of levofloxacin; assay type: functional; details: time 7 day
[17] = test system: Mycolicibacterium smegmatis; experiment: Antimycobacterial activity against Mycobacterium smegmatis ATCC607 assessed as reduction in bacterial viability at 16 uM incubated for 24 hrs by time kill assay relative to control; assay type: functional
[18] = test system: Mycolicibacterium smegmatis; experiment: Antimycobacterial activity against Mycobacterium smegmatis ATCC607 assessed as reduction in bacterial viability at 16 uM measured after 72 hrs by time kill assay in presence of rifampicin relative to control; assay type: functional
[19] = test system: Mycobacterium tuberculosis; experiment: Additive antimycobacterial activity against Mycobacterium tuberculosis H37Rv ATCC 25618 assessed as fractional inhibitory concentration index incubated for […] by micro dilution checkerboard assay in presence of rifampicin; assay type: functional
[20] = test system: Mycobacterium tuberculosis; experiment: Antimycobacterial activity against Mycobacterium tuberculosis H37Rv ATCC 25618 incubated for 7 days by resazurin dye based two-dimensional micro dilution checkerboard assay in presence of rifampicin; assay type: functional; details: time 7 day
[21] = test system: Mycobacterium tuberculosis; experiment: Antimycobacterial activity against Mycobacterium tuberculosis H37Rv ATCC 25618 assessed as fractional inhibitory concentration index incubated for 7 days by resazurin dye based two-dimensional micro dilution checkerboard assay in presence of rifampicin; assay type: functional; details: time 7 day
[22] = test system: Mycobacterium tuberculosis; experiment: Synergistic antimycobacterial activity against Mycobacterium tuberculosis H37Rv ATCC 25618 incubated for 7 days by resazurin dye based two-dimensional micro dilution checkerboard assay in presence of rifampicin; assay type: functional; details: time 7 day
[23] = test system: Mycobacterium tuberculosis; experiment: Synergistic antimycobacterial activity against Mycobacterium tuberculosis H37Rv ATCC 25618 assessed as fractional inhibitory concentration index incubated for 7 days by resazurin dye based two-dimensional micro dilution checkerboard assay in presence of rifampicin; assay type: functional; details: time 7 day
[24] = test system: Mycobacterium tuberculosis; experiment: Antimycobacterial activity against Mycobacterium tuberculosis H37Rv ATCC 25618 assessed as reduction in concentration required to inhibit bacterial growth incubated for 7 days by resazurin dye based two-dimensional micro dilution checkerboard assay in presence of rifampicin relative to control; assay type: functional; parameters: scale not given: the % may be the effect or the level left; details: time 7 day
[25] = test system: Mycolicibacterium smegmatis; experiment: Antimycobacterial activity against Mycobacterium smegmatis ATCC607 infected in mouse J774 cells assessed as reduction in intracellular bacterial count at 32 uM measured after 6 hrs relative to control; assay type: functional; parameters: scale not given: the % may be the effect or the level left
[26] = test system: Mycolicibacterium smegmatis; experiment: Intracellular antimycobacterial activity against Mycobacterium smegmatis ATCC607 infected in mouse J774 cells assessed as reduction in bacterial count at 16 to 32 uM measured after 24 hrs; assay type: functional, organism-based; details: dose 16-32 µM
[27] = test system: Mycolicibacterium smegmatis; experiment: Antimycobacterial activity against Mycobacterium smegmatis ATCC607 infected in mouse J774 cells assessed as reduction in intracellular bacterial count at 2 times MIC measured after 24 hrs relative to control; assay type: functional; parameters: scale not given: the % may be the effect or the level left
[28] = test system: Mycolicibacterium smegmatis; experiment: Antimycobacterial activity against Mycobacterium smegmatis ATCC607 infected in mouse J774 cells assessed as log reduction in intracellular bacterial count at 2 times MIC measured after 24 hrs relative to control; assay type: functional
[29] = test system: Mycolicibacterium smegmatis; experiment: Antimycobacterial activity against Mycobacterium smegmatis ATCC607 infected in mouse J774 cells assessed as reduction in intracellular bacterial count at MIC in presence of rifampicin measured for 24 hrs relative to control; assay type: functional; parameters: scale not given: the % may be the effect or the level left
[30] = test system: Mycobacterium tuberculosis; experiment: Antimycobacterial activity against Mycobacterium tuberculosis H37Rv ATCC 25618 assessed as induction of morphological changes by measuring extrusion of cytosolic material at MIC incubated for 96 hrs by TEM analysis; assay type: functional, organism-based
[31] = test system: Mycobacterium tuberculosis; experiment: Antimycobacterial activity against Mycobacterium tuberculosis H37Rv ATCC 25618 assessed as induction of morphological changes by measuring disruption and discontinuity of the bacterial envelope at MIC incubated for 96 hrs by TEM analysis; assay type: functional, organism-based
[32] = test system: Mycobacterium tuberculosis; experiment: Antimycobacterial activity against Mycobacterium tuberculosis H37Rv ATCC 25618 assessed as induction of morphological changes by measuring increase in lipid inclusions at MIC incubated for 96 hrs by TEM analysis; assay type: functional, organism-based
[33] = test system: Mycolicibacterium smegmatis; experiment: Antimycobacterial activity against Mycobacterium smegmatis ATCC607 assessed as reduction in bacterial viability at 16 uM by time kill assay; assay type: functional, organism-based; details: time 0-72 hrs, TDE = time-dependent effect
[34] = test system: Mycolicibacterium smegmatis; experiment: Antimycobacterial activity against Mycobacterium smegmatis ATCC607 infected in mouse J774 cells assessed as log reduction in intracellular bacterial count at MIC in presence of rifampicin measured for 24 hrs; assay type: functional

Row | SMILES | MIC [1] | Ratio [2] | CC50 at 48 h [3] | CC50 at 48 h [4] | CC50 at 48 h [5] | MIC [6] | MIC [7] | MIC [8] | FIC [9] | FIC [10] | FIC [11] | FIC [12] | fractional inhibitory concentration index (FICI) [13] | fractional inhibitory concentration index (FICI) [14] | fractional inhibitory concentration index (FICI) [15] | fractional inhibitory concentration index (FICI) [16] | Activity [17] | Activity [18] | also measured
1 | CCCCCCCCCCCCCCCC(N)COCc1ccccc1 (configuration not stated) | 4.5 µM (≈ 1.63 µg/mL) | 80 | 42.2 µM | 5.94 µM | 99.2 µM | 16 µM (≈ 5.79 µg/mL) | 16 µM (≈ 5.79 µg/mL) | 128 µM (≈ 46.3 µg/mL) | 0.5 | 0.25 | 0.5 | 0.25 | 1 | 0.75 | 0.75 | 0.75 | 24.56% | >99.9% | fractional inhibitory concentration index (FICI) [19]: 0.56; FIC [20]: 0.5; fractional inhibitory concentration index (FICI) [21]: 0.56
2 | CCCCCCCCCCCCCCCC(N)COCc1cc(OC)c(OC)c(OC)c1 (configuration not stated) | 8 µM (≈ 3.61 µg/mL) | 45 | 17.7 µM | 120 µM | 149 µM | 16 µM (≈ 7.23 µg/mL) | ≤ 4 µM | 512 µM (≈ 231 µg/mL) | 0.013 | 0.125 | 0.126 | 0.127 | 0.63 | 0.63 | 0.63 | 0.63 | 99.9% | >99.9% | FIC [22]: 0.25; fractional inhibitory concentration index (FICI) [23]: 0.5; Activity [24]: 75%; Activity [25]: 6.2%; Activity [26]: Active; Activity [27]: 33.3%; Activity [28]: 1.9 log10CFU/ml; Activity [29]: 12.2%; Activity [30]: Active; Activity [31]: Active; Activity [32]: Active; Activity [33]: Tde; Activity [34]: >1 log10CFU/ml
